Patent US7094909B2, “HIV protease inhibitors, compositions containing the same, their pharmaceutical uses and materials for their synthesis” (priority 2001, dated 2006)
Several values for one entry are separate records, joined by “and”; a condition that tells them apart may be missing. Identical values can stand only once. Like-named read-outs stand apart in the source and are kept apart here.

What was measured:
[1] = molecular target: T1, HIV-1 protease (Q7S mutant form) (Human immunodeficiency virus type 1 group M subtype B, UniProt P04585, Q495S); test: HIV-1 Protease RET assay; assay type: biochemical
T1 construct: made in house
Summary of the method: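 Ki values fitted with the Morrison tight-binding equation from steady-state RET cleavage (ex 340, em 490 nm) of 5 μM RE(EDANS)SQNYPIVQK(DABCYL)R. Buffer pH 4.8 acetate, 1M NaCl, 5 mM DTT, 1 mg/ml BSA, 10% DMSO; 2 nM Q7S mutant dimer, 37 °C, 12 min.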

[2] = system: HIV-1 (HIV-1 RF, HIV-1 NL4-3) in CEM-SS / MT-2 cells; test: Cytopathic effect (CPE) inhibition assay (XTT/MTT dye reduction); assay type: cell-based
Summary of the method: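 Readout is XTT reduction (A450, 4 h) after six days of culturing virus-infected (moi 0.025–0.819) or mock-infected CEM-SS/MT-2 cells, 2×10^4 per well, with half-log compound series. Antiviral EC50 and cytotoxic CC50 are relative to uninfected compound-free cells. Therapeutic index is CC50 divided by EC50.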

[3] = system: HIV-1 NL4-3 or HIV-1 NL4-3(I84V/L90M); test: Susceptibility assay, p24 ELISA in infected MT-2 cells; assay type: cell-based; conditions: Human immunodeficiency virus 1, NL43, MT2, read-out: EC50 or IC50 (mM), values without asterisk (EC50)
Protocol: T-cell lines, CEM-SS, and MT-2, and viruses HIV-1 RF and HIV-1 NL4-3 (pNL4-3) were obtained from the National Institutes of Health (AIDS Research and Reference Reagent Program, Bethesda, Md.).
Compounds were tested in phenotypic susceptibility assays at Virologic, Inc., (See Petropoulos C. J., Parkin N. T., Limoli K. L., Lie Y. S., Wrin T., Huang W., Tian H., Smith D., Winslow G. A., Capon D J, Whitcomb J M. 2000, “A novel phenotypic drug susceptibility assay for human immunodeficiency virus type 1,” Antimicrob Agents Chemother 44(4):920–928) or using the assay described here. MT-2 cells were infected with either HIV-1 NL4-3 or HIV-1 NL4-3([…]) and incubated in the presence of serial 0.5 log dilutions of test compounds. Three days later, culture supernatants were collected and virus production, as determined by p24 ELISA, was assayed. Percent inhibition was calculated as p24 concentration in compound-treated samples as compared to infected, compound-free controls. Inhibition of viral replication is determined by measuring reduction in HIV p24 present in the culture supernatant, using a Beckman-Coulter p24HIV-1 Ag EIA kit and following the supplied protocol. Absorbance is read on a MRX microplate reader (Dynex Technologies). The EC50 was calculated as the concentration of compound that effected a decrease in the p24 production by infected, compound-treated cells to 50% of that produced by infected, compound-free cells.

[4] = Ave. Ki (nM), RET assay, Q7S enzyme, Morrison tight binding fit
[5] = Human immunodeficiency virus 1, NL43, read-out: Ave CPE EC50

In the case of Cc1c(O)cccc1C(=O)N[C@@H](Cc1ccccc1)[C@H](O)C(=O)N1CSC(C)(C)[C@H]1C(=O)N[C@H]1CCCc2occc21 (stereo in doubt) [Example A48, 3-[2-Hydroxy-3-(3-hydroxy-2-methyl-benzoylamino)-4-phenyl-butyryl]-5,5-dimethyl-thiazolidine-4-carboxylic acid (4,5,6,7-tetrahydro-benzofuran-4-yl)-amide], the Ki [1, 4] is reported as under 0.1 nM, the EC50 [2, 5] is reported as 37 nM and the EC50 [3] is reported as 92 nM.

In the case of Cc1c(O)cccc1C(=O)N[C@@H](Cc1ccccc1)[C@H](O)C(=O)N1CSC2(CCCC2)C1C(=O)N[C@@H]1C=CCCC1 (stereo in doubt) [Example C35, (S)-3-((2S,3S)-2-Hydroxy-3-{[1-(3-hydroxy-2-methyl-phenyl)-methanoyl]-amino}-4-phenyl-butanoyl)-1-thia-3-aza-spiro[4.4]nonane-4-carboxylic acid (S)-cyclohex-2-enylamide], the Ki [1, 4] is reported as under 0.1 nM, the EC50 [2, 5] is reported as 3 nM and the EC50 [3] is reported as 289 nM.

Cc1ccccc1CNC(=O)[C@@H]1CC(F)(F)CN1C(=O)[C@@H](O)[C@H](Cc1ccccc1)NC(=O)COc1c(C)cccc1C (stereo in doubt) [Example C40, 1-{3-[2-(2,6-Dimethyl-phenoxy)-acetylamino]-2-hydroxy-4-phenyl-butyryl}-4,4-difluoro-pyrrolidine-2-carboxylic acid 2-methyl-benzylamide] was tested, and the Ki [1, 4] was 1.8 nM and 0.82 nM and the EC50 [3] was 1800 nM.

Work on Cc1c(O)cccc1C(=O)N[C@@H](Cc1ccccc1)[C@H](O)C(=O)N1CSC(C)(C)[C@H]1C(=O)NCc1ccc2c(c1)CCO2 [Example A9, (R)-3-((2S,3S)-2-Hydroxy-3-{[1-(3-hydroxy-2-methyl-phenyl)-methanoyl]-amino}-4-phenyl-butanoyl)-5,5-dimethyl-thiazolidine-4-carboxylic acid (2,3-dihydro-benzofuran-5-ylmethyl)-amide] yielded a Ki [1, 4] of 0.49 nM, an EC50 [2, 5] of 138 nM and an EC50 [3] of 1080 nM.

Cc1ccncc1CNC(=O)[C@H]1N(C(=O)[C@@H](O)[C@H](Cc2ccccc2)NC(=O)c2cccc(O)c2C)CSC1(C)C [Example A22, 3-(2-Hydroxy-3-{[1-(3-hydroxy-2-methyl-phenyl)-methanoyl]-amino}-4-phenyl-butanoyl)-5,5-dimethyl-thiazolidine-4-carboxylic acid-(4-methyl-pyridin-3-ylmethyl)amide] showed a Ki [1, 4] of under 0.1 nM, an EC50 [2, 5] of 138 nM and an EC50 [3] of 318 nM.

Cc1c(O)cccc1C(=O)N[C@@H](Cc1ccccc1)[C@H](O)C(=O)N1CSC(C)(C)[C@H]1C(=O)NCC1=CCCC1 [Example A39, (R)-3-((2S,3S)-2-Hydroxy-3-{[1-(3-hydroxy-2-methyl-phenyl)-methanoyl]-amino}-4-phenyl-butanoyl)-5,5-dimethyl-thiazolidine-4-carboxylic acid (cyclopent-1-enylmethyl)-amide] was tested, and the Ki [1, 4] was under 0.1 nM, the EC50 [2, 5] was 123 nM and the EC50 [3] was 213 nM.

Cc1c(O)cccc1C(=O)N[C@@H](Cc1ccccc1)[C@H](O)C(=O)N1CSC(C)(C)[C@H]1C(=O)NCc1ccsc1 [Example A40, (R)-3-((2S,3S)-2-Hydroxy-3-{[1-(3-hydroxy-2-methyl-phenyl)-methanoyl]-amino}-4-phenyl-butanoyl)-5,5-dimethyl-thiazolidine-4-carboxylic acid (thiophen-3-ylmethyl)-amide] gave a Ki [1, 4] of under 0.1 nM, an EC50 [2, 5] of 40 nM and an EC50 [3] of 109 nM.

Work on Cc1c(O)cccc1C(=O)N[C@@H](Cc1ccccc1)[C@H](O)C(=O)N1CSC(C)(C)[C@H]1C(=O)NCc1nccs1 [Example A41, (R)-3-((2S,3S)-2-Hydroxy-3-{[1-(3-hydroxy-2-methyl-phenyl)-methanoyl]-amino}-4-phenyl-butanoyl)-5,5-dimethyl-thiazolidine-4-carboxylic acid (thiazol-2-ylmethyl)-amide] yielded a Ki [1, 4] of 0.17 nM, an EC50 [2, 5] of 145 nM and an EC50 [3] of 242 nM.

Compound Cc1c(O)cccc1C(=O)N[C@@H](Cc1ccccc1)[C@H](O)C(=O)N1CSC(C)(C)[C@H]1C(=O)N[C@H]1CCCc2ncccc21 [Example A42, 3-[2-Hydroxy-3-(3-hydroxy-2-methyl-benzoylamino)-4-phenyl-butyryl]-5,5-dimethyl-thiazolidine-4-carboxylic acid (5,6,7,8-tetrahydro-quinolin-5-yl)-amide] has a Ki [1, 4] of under 0.1 nM, an EC50 [2, 5] of 65 nM and an EC50 [3] of 98 nM.

Cc1c(O)cccc1C(=O)N[C@@H](Cc1ccccc1)[C@H](O)C(=O)N1CSC(C)(C)[C@H]1C(=O)NCc1ccoc1 [Example A45, (R)-3-((2S,3S)-2-Hydroxy-3-{[1-(3-hydroxy-2-methyl-phenyl)-methanoyl]-amino}-4-phenyl-butanoyl)-5,5-dimethyl-thiazolidine-4-carboxylic acid (furan-3-ylmethyl)-amide] showed a Ki [1, 4] of under 0.1 nM, an EC50 [2, 5] of 34 nM and an EC50 [3] of 48 nM.

CCCNC(=O)[C@@H]1CC(F)(F)CN1C(=O)[C@@H](O)[C@H](Cc1ccccc1)NC(=O)COc1c(C)cccc1C [Example C45, 1-{3-[2-(2,6-Dimethyl-phenoxy)-acetylamino]-2-hydroxy-4-phenyl-butyryl}-4,4-difluoro-pyrrolidine-2-carboxylic acid propylamide] gave a Ki [1, 4] of 3.6 nM and an EC50 [2, 5] of 1580 nM.

Cc1ccccc1CNC(=O)[C@H]1N(C(=O)[C@@H](O)[C@H](Cc2ccccc2)NC(=O)COc2c(C)cccc2C)CC(F)(F)C1(C)C [Example C46, (S)-1-{(2S,3S)-3-[2-(2,6-Dimethyl-phenoxy)-acetylamino]-2-hydroxy-4-phenyl-butyryl}-4,4-difluoro-3,3-dimethyl-pyrrolidine-2-carboxylic acid 2-methyl-benzylamide] was tested, and the Ki [1, 4] was under 0.1 nM and the EC50 [2, 5] was 407 nM.

Cc1ccccc1CNC(=O)[C@H]1N(C(=O)[C@@H](O)[C@H](Cc2ccccc2)NC(=O)O[C@H]2CCOC2)COC1(C)C [Example C47, {(1S,2S)-1-Benzyl-3-[(S)-5,5-dimethyl-4-(2-methyl-benzylcarbamoyl)-oxazolidin-3-yl]-2-hydroxy-3-oxo-propyl}-carbamic acid (S)-(tetrahydro-furan-3-yl)ester] was tested, and the Ki [1, 4] was 1.4 nM and the EC50 [2, 5] was 1380 nM.

For Cc1ccccc1CNC(=O)[C@H]1N(C(=O)[C@@H](O)[C@H](Cc2ccccc2)NC(=O)c2cccc(O)c2C)CC(=O)C1(C)C [Example C48, 1-[2-Hydroxy-3-(3-hydroxy-2-methyl-benzoylamino)-4-phenyl-butyryl]-3,3-dimethyl-4-oxo-pyrrolidine-2-carboxylic acid 2-methyl-benzylamide], the Ki [1, 4] was under 0.1 nM and the EC50 [2, 5] was 128 nM.

Cc1ccccc1CNC(=O)[C@@H]1C2CCC(C2)N1C(=O)[C@@H](O)[C@H](Cc1ccccc1)NC(=O)c1cccc(O)c1C (some centres unmarked) [Example C50, 2-(2-Hydroxy-3-{[1-(-hydroxy-2-methyl-phenyl)-methanoyl]-amino}-4-phenyl-butanoyl)-2-aza-bicyclo[2.2.1]-heptane-3-carboxylic acid-2-methyl-benzylamide] was tested, and the Ki [1, 4] was 7.9 nM and the EC50 [2, 5] was 997 nM.

Work on CCCNC(=O)[C@H]1N(C(=O)[C@@H](O)[C@H](Cc2ccccc2)NC(=O)c2cc(C)cc(O)c2C)CC(F)(F)C1(C)C [Example D4, (S)-4,4-Difluoro-1-[(2S,3S)-2-hydroxy-3-(3-hydroxy-2,5-dimethyl-benzoylamino)-4-phenyl-butyryl]-3,3-dimethyl-pyrrolidine-2-carboxylic acid propylamide] yielded a Ki [1, 4] of under 0.1 nM and an EC50 [2, 5] of 9 nM.

For Cc1cc(O)c(C)c(C(=O)N[C@@H](Cc2ccccc2)[C@H](O)C(=O)N2CC(F)(F)C(C)(C)[C@H]2C(=O)NCC(C)C)c1 [Example D5, (S)-4,4-Difluoro-1-[(2S,3S)-2-hydroxy-3-(3-hydroxy-2,5-dimethyl-benzoylamino)-4-phenyl-butyryl]-3,3-dimethyl-pyrrolidine-2-carboxylic acid isobutyl-amide], the Ki [1, 4] was under 0.1 nM and the EC50 [2, 5] was 11 nM.

In the case of Cc1ccccc1CNC(=O)C1N(C(=O)[C@@H](O)[C@H](CSc2ccccc2)NC(=O)c2cccc(O)c2C)CSC1(C)C (some centres unmarked) [drawing 934], the Ki ([1]; Ki, unit inferred) is reported as at most 0.1 nM and the EC50 ([2]; unit inferred, read-out: EC50) is reported as 27 nM.

Work on Cc1ccccc1CNC(=O)C1N(C(=O)[C@@H](O)[C@H](CSc2ccccc2)NC(=O)c2cccc(O)c2C)CSC1(C)C (some centres unmarked) [drawing 969] yielded a Ki ([1]; Ki, unit inferred) of 0.25 nM and an EC50 ([2]; unit inferred, read-out: EC50) of 879 nM.
